Columns and labels:
[1] = tested on: Hyaluronic acid synthase-2 (HAS2) gene; test: Gene expression change by qPCR in EpiDerm-FT: HAS2; format: cell-based, human; settings: vs vehicle-treated tissues, GAPDH housekeeping
From the text: (§1) The purpose of this study was to evaluate the hyaluronic acid (HA) expression change activity of RoC® HA Serum Capsules (i.e. Example 2.0), RoC® Retinol Serum Capsules (i.e. Example 1.0), commercially available HA Serum (1.5 wt. % HA) and commercially available Retinol Serum (0.3 wt. % retinol) compared to 0.15% Retinol-treated tissues in cultured human epidermal/dermal skin tissues (EpiDerm-FT™). HA levels from culture medium, tissue lysates, HA histology and gene expression related to dermal anti-aging effects were quantified using qPCR method after 24- and 72-hours incubation with test materials.

[2] = tested on: cultured human epidermal/dermal skin tissues (EpiDerm-FT); test: Alcian Blue histology of dermal layer, image analysis, EpiDerm-FT; format: cell-based; settings: vs vehicle-only treated tissues
From the text: as §1
After incubations, tissues were fixed and subjected to the normal steps of tissue preparation for histological analysis: dehydration, paraffin embedding, sectioning and staining with Alcian Blue. Histological activity was analyzed using image analysis including blue-color deconvolution and luminosity per section area in dermal layer. The percent change effect of each treatment was calculated comparing the vehicle-only treated tissues group.

[3] = tested on: Hyaluronic acid synthase-1 (HAS1) gene; test: Gene expression change by qPCR in EpiDerm-FT: HAS1; format: cell-based, human; settings: vs vehicle-treated tissues, GAPDH housekeeping
From the text: as §1

[4] = tested on: cultured human epidermal/dermal skin tissues (EpiDerm-FT); test: Hyaluronic acid levels by HA ELISA in culture medium and tissue lysates of EpiDerm-FT; format: cell-based; settings: vs vehicle-treated tissues
From the text: as §1

Elastin (ELN) gene = test: Gene expression change by qPCR in EpiDerm-FT: ELN; format: cell-based, human; settings: vs vehicle-treated tissues, GAPDH housekeeping
From the text: as §1

[5] = tested on: Collagen type-I (COL1A1) gene; test: Gene expression change by qPCR in EpiDerm-FT: COL1A1; format: cell-based, human; settings: vs vehicle-treated tissues, GAPDH housekeeping
From the text: as §1

[6] = tested on: Collagen type-IV (COL4A1) gene; test: Gene expression change by qPCR in EpiDerm-FT: COL4A1; format: cell-based, human; settings: vs vehicle-treated tissues, GAPDH housekeeping
From the text: as §1

Fibronectin (FN1) gene = test: Gene expression change by qPCR in EpiDerm-FT: FN1; format: cell-based, human; settings: vs vehicle-treated tissues, GAPDH housekeeping
From the text: as §1

[7] = tested on: Collagen type-III (COL3A1) gene; test: Gene expression change by qPCR in EpiDerm-FT: COL3A1; format: cell-based, human; settings: vs vehicle-treated tissues, GAPDH housekeeping
From the text: as §1

[8] = 24 hr, n = 3, listed as 0.15% Retinol formulated in DMSO

SMILES: CC1=C(/C=C/C(C)=C/C=C/C(C)=C/CO)C(C)(C)CCC1 [0.15% Retinol in DMSO, Retinol]
- Gene Expression change, HAS2 ([1]; 24 hr): −11%
- Gene Expression change, HAS2 ([1]; 72 hr): −18%
- Histology, Alcian Blue in Dermis staining change ([2]; 24 hr): +81%
- Histology, Alcian Blue in Dermis staining change ([2]; 72 hr): −9%
- Gene Expression change, HAS1 ([3]; 24 hr): −52%
- Gene Expression change, HAS1 ([3]; 72 hr): −29%
- Hyaluronic Acid (HA) levels change, Culture medium ([4]; 24 hr, n = 3): +34%
- Hyaluronic Acid (HA) levels change, Tissue lysates ([4]; 24 hr, n = 3): +52%
- Hyaluronic Acid (HA) levels change, Culture medium [4, 8]: 34%
- Hyaluronic Acid (HA) levels change, Tissue lysates [4, 8]: 52%
- Hyaluronic Acid (HA) levels change, Culture medium ([4]; 72 hr, n = 3): +25%
- Hyaluronic Acid (HA) levels change, Tissue lysates ([4]; 72 hr, n = 3): +49%
- Gene Expression change, ELN (Elastin (ELN) gene; 24 hr): −21%
- Gene Expression change, ELN (Elastin (ELN) gene; 72 hr): +25%
- Gene Expression change, COL1A1 ([5]; 24 hr): −22%
- Gene Expression change, COL1A1 ([5]; 72 hr): +18%
- Gene Expression change, COL4A1 ([6]; 24 hr): −30%
- Gene Expression change, COL4A1 ([6]; 72 hr): +9%
- Gene Expression change, FN1 (Fibronectin (FN1) gene; 24 hr): −16%
- Gene Expression change, FN1 (Fibronectin (FN1) gene; 72 hr): +45%
- Gene Expression change, FN1 (Fibronectin (FN1) gene; 72 hr, listed as 0.15% Retinol formulated in DMSO): 45%
- Gene Expression change, COL3A1 ([7]; 24 hr): −22%
- Gene Expression change, COL3A1 ([7]; 72 hr): +8%
